For this experiment, the system named is VEGF-A mRNA expression in macrophages (RAW264.7). As to the kind of experiment: In vitro macrophage experiment: activity of compounds to promote VEGF-A mRNA expression (RT-qPCR). In kind it is cell-based. Also noted: Expression level of VEGF-A mRNA: unit of the concentration uncertain. Conditions: RAW264.7 macrophages, 3 h, no drug = 1; for fold induction at 1 µM / fold induction at 100 µM / fold induction at 500 µM / fold induction at 1000 µM / fold induction at 2000 µM / fold induction at 3000 µM: Mus musculus, read-out: Expression level of VEGF-A mRNA; for fold induction at 100 µM: 0.1 mM; for fold induction at 500 µM: 0.5 mM; for fold induction at 1000 µM: 1 mM; for fold induction at 2000 µM: 2 mM; for fold induction at 3000 µM: 3 mM. The text has this: 1.1. Specific steps for activity screening: 1-10×10^6 macrophages (RAW264.7) in logarithmic growth phase were transferred to a cell culture plate. The test compounds (Compounds TG-001, TG-002, TG-003, TG-004, TG-005, TG-006, TG-007, TG-008, TG-009, TG-010, TG-011, TG-012, TG-013, TG-014, TG-015, TG-016, TG-017, TG-018, TG-019, TG-020, TG-021, TG-022, TG-023, TG-024, TG-025, TG-026, TG-027, TG-028, TG-029, TG-030, TG-031, TG-032, TG-033, TG-034, TG-035, TG-036, TG-037, TG-045, TG-039, TG-040 TG-041, TG-042, TG-043, TG-044, TG-045, TG-052, TG-053, TG-054, TG-047, TG-048, TG-046, TG-049, TG-050, TG-051, TG-055 and TG-056) were respectively diluted into various concentrations, and separately added to the cell culture plate containing macrophage. The cells were cultured for 3 h in a complete medium (RPMI 1640 medium:fetal bovine serum:tri-resistance screening agent (i.e. penicillin-streptomycin-gentamicin, Beijing Leagene Biotechnology Co., Ltd.)=89:10:1 based on volume) in a cell incubator at 37° C. and 5% CO2. The cells were lyzed by Trizol (Beijing ComWin Biotech Co., Ltd) to extract RNA, and the RNA concentration was measured using a microvolume nucleic acid and protein analyzer (Nanodrop2000c). The required volume V of RNA was calculated according to the RNA concentration, and the RNA reverse transcription reaction system was prepared according to Table 1. Then RNA reverse transcription (cDNA synthesis) (RT Easy™ I (For first-strand cDNA synthesis) Reverse Transcription Kit, Chengdu ForeGene Biotechnology Co., Ltd.) was carried out according to the conditions described in Table 2. The resulting cDNA was used to prepare a fluorescence quantitative PCR reaction solution according to Table 3. The fluorescence quantitative PCR reaction conditions were set according to Table 4, and the fluorescence quantitative PCR reaction (Real time PCR Easy™-SYBR Green Fluorescence Quantification Kit, Chengdu ForeGene Biotechnology Co., Ltd.) was performed using cDNA from the reverse transcription reaction as a template. The relative expression level 2^−ΔΔCt of the target gene was calculated from the Ct value of each sample with the blank control group as a control and β-Actin as an internal reference.
Based on the maximum level of VEGF-A mRNA expression promoted by a drug at a certain concentration, the activity of the drug was determined. The expression level of VEGF-A mRNA in macrophages was defined as 1 when no drug was added. Using a traditional Chinese medicine injection Salvianolate that is used in the treatment of Cardio-cerebrovascular disease and promotes a maximum level of VEGF-A mRNA expression of 6 in macrophages (the results are shown in Table 5) as a judgment standard, the compound promoting a maximum level of VEGF-A mRNA expression of 4 or more in macrophage was a target compound. That is, when the maximum level of VEGF-A mRNA expression in macrophages promoted by the test compound is over 4-fold higher than the expression level of VEGF-A mRNA in macrophages without the addition of the test compound, the test compound was a preliminary target compound promoting angiogenesis.

The mark [1] stands for this setting: 1 μM, relative expression 2^-ΔΔCt.

The text below walks through data of patent publication US11325937B2, “Glycoside compound and preparation method therefor, composition, application, and intermediate” (SHANGHAI HUTCHISON PHARMACEUTICALS LIMITED, priority 2018, dated 2022).

Turning to `CC(C)(C)CCOc1ccc(CCCCO[C@@H]2O[C@H](CO)[C@@H](O)[C@H](O)[C@H]2O)cc1` [TG-040], the fold induction at 1 µM under setting [1] was 2.09. Besides, where the note is “relative expression”, the fold induction at 100 µM is 3.97, the fold induction at 500 µM amounted to 1.46, the fold induction at 1000 µM was 0.81 and the fold induction at 2000 µM was determined as 0.22. Also, the fold induction at 3000 µM (relative expression) was 0.28.
In the case of `CC(C)(C)COc1ccc(CCCCO[C@@H]2O[C@H](CO)[C@@H](O)[C@H](O)[C@H]2O)cc1` [TG-041], the fold induction at 1 µM under setting [1] came out at 0.62. For the same molecule, under “relative expression”, the fold induction at 100 µM was 0.84, the fold induction at 500 µM is 1.97, the fold induction at 1000 µM came out at 8.17 and the fold induction at 2000 µM turned out to be 0.16. The fold induction at 3000 µM (relative expression) was found to be 0.23.
With `CC1(C)CCOc2ccc(CCCCO[C@@H]3O[C@H](CO)[C@@H](O)[C@H](O)[C@H]3O)cc21` [TG-042], the fold induction at 1 µM under setting [1] stood at 11. Also, for the setting “relative expression”, the fold induction at 100 µM worked out at 7.25, the fold induction at 500 µM worked out at 9.86, the fold induction at 1000 µM came to 1.11 and the fold induction at 2000 µM is 0.63. Further, the fold induction at 3000 µM (relative expression) was found to be 0.84.
In the case of `CCCCCCCCCCCCCCCCOc1ccc(CCCCO[C@@H]2O[C@H](CO)[C@@H](O)[C@H](O)[C@H]2O)cc1` [TG-043], the fold induction at 1 µM under setting [1] worked out at 1.16. Where the note is “relative expression”, the fold induction at 100 µM came to 1.52, the fold induction at 1000 µM stood at 3.36, the fold induction at 2000 µM was 4.09 and the fold induction at 3000 µM was 4.29.
`COCCOCCOCCOCCOc1ccc(CCCCO[C@@H]2O[C@H](CO)[C@@H](O)[C@H](O)[C@H]2O)cc1` [TG-044]: the fold induction at 1 µM under setting [1] is 0.65. Under “relative expression”, the fold induction at 100 µM worked out at 1.18, the fold induction at 500 µM was determined as 1.56, the fold induction at 1000 µM came out at 1.04 and the fold induction at 2000 µM came out at 0.79. Further, the fold induction at 3000 µM (relative expression) turned out to be 0.95.
As to `COc1ccc(CCCCO[C@@H]2O[C@H](CO)[C@@H](O[C@@H]3OC(CO)[C@H](O)[C@H](O)[C@H]3O)[C@H](O)[C@H]2O)cc1` (some centres unmarked) [TG-045], the fold induction at 1 µM under setting [1] is 0.62. Besides, where the note is “relative expression”, the fold induction at 100 µM was determined as 0.99, the fold induction at 500 µM was 0.62, the fold induction at 1000 µM is 0.73 and the fold induction at 2000 µM is 1.78. The fold induction at 3000 µM (relative expression) was found to be 0.35.
Regarding `COc1ccc(CCCCO[C@H]2O[C@H](CO)[C@@H](O)[C@H](O)[C@H]2O)cc1` [TG-046], under setting [1], the fold induction at 1 µM was found to be 1.86. For the same molecule, for the setting “relative expression”, the fold induction at 100 µM was found to be 1.96, the fold induction at 500 µM stood at 2.14, the fold induction at 1000 µM was 2.27 and the fold induction at 2000 µM was found to be 2.25. For the same molecule, the fold induction at 3000 µM (relative expression) amounted to 5.32.
Take `COc1ccc(CCS[C@@H]2O[C@H](CO)[C@@H](O)[C@H](O)[C@H]2O)cc1` [TG-047]: the fold induction at 1 µM under setting [1] came to 2.12. For the setting “relative expression”, the fold induction at 100 µM was 1.93, the fold induction at 500 µM came to 2.34, the fold induction at 1000 µM amounted to 2.84 and the fold induction at 2000 µM is 2.6. Moreover, the fold induction at 3000 µM (relative expression) was 3.45.
For the molecule `COc1ccc(CCCCS[C@@H]2O[C@H](CO)[C@@H](O)[C@H](O)[C@H]2O)cc1` [TG-048], the fold induction at 1 µM under setting [1] was determined as 1.43. Moreover, under “relative expression”, the fold induction at 100 µM was 1.26, the fold induction at 500 µM was 4.73, the fold induction at 1000 µM came out at 11 and the fold induction at 2000 µM came out at 3.81. The fold induction at 3000 µM (relative expression) is 2.19.
Regarding `OC[C@H]1O[C@@H](OCCCCc2ccc(OCc3ccccc3F)cc2)[C@H](O)[C@@H](O)[C@@H]1O` [TG-050], the fold induction at 1 µM under setting [1] amounted to 1.27. Besides, where the note is “relative expression”, the fold induction at 100 µM came out at 2.81, the fold induction at 500 µM amounted to 1.85, the fold induction at 1000 µM was 2.16 and the fold induction at 2000 µM was 1.74. Moreover, the fold induction at 3000 µM (relative expression) is 15.1.
Consider `OC[C@H]1O[C@@H](OCCCCc2ccc(OCc3ccc(F)cc3)cc2)[C@H](O)[C@@H](O)[C@@H]1O` [TG-051], for which, under setting [1], the fold induction at 1 µM came to 1.1. Further, under “relative expression”, the fold induction at 100 µM worked out at 4.49, the fold induction at 500 µM turned out to be 6.76, the fold induction at 1000 µM was 7.89 and the fold induction at 2000 µM worked out at 11.2. In addition, the fold induction at 3000 µM (relative expression) is 8.18.
With TG-003, the “Expression level of VEGF-A mRNA” value by setting is: under setting [1], 0.96; (0.1 (unit uncertain), relative expression) 3.56; (0.5 (unit uncertain), relative expression) 4.69; (1 (unit uncertain), relative expression) 3.12; (2 (unit uncertain), relative expression) 1.39; (3 (unit uncertain), relative expression) 0.56.
